BigSolDB 2.1

O=C1CCCCCN1
Conditions | solubility (mole fraction)
in acetonitrile, 278.85 K | 0.149
in acetonitrile, 283.65 K | 0.187
in acetonitrile, 288.25 K | 0.236
in acetonitrile, 293.55 K | 0.294
in acetonitrile, 298.45 K | 0.359
in acetonitrile, 303.65 K | 0.427
in acetonitrile, 308.15 K | 0.486
in acetonitrile, 313.15 K | 0.558
in acetonitrile, 318.65 K | 0.637
in acetonitrile, 323.15 K | 0.725
in benzene, 279.25 K | 0.2
in benzene, 284.15 K | 0.232
in benzene, 288.55 K | 0.27
in benzene, 293.15 K | 0.31
in benzene, 297.85 K | 0.361
in benzene, 303.05 K | 0.423
in benzene, 307.25 K | 0.482
in benzene, 313.25 K | 0.566
in benzene, 317.45 K | 0.631
in benzene, 321.75 K | 0.701
in cyclohexane, 283.65 K | 0.0042
in cyclohexane, 288.25 K | 0.00616
in cyclohexane, 292.85 K | 0.00897
in cyclohexane, 297.95 K | 0.0144
in cyclohexane, 302.95 K | 0.0244
in cyclohexane, 307.25 K | 0.0373
in cyclohexane, 312.55 K | 0.0617
in cyclohexane, 318.35 K | 0.108
in cyclohexane, 322.65 K | 0.163
in ethyl acetate, 278.85 K | 0.103
in ethyl acetate, 283.65 K | 0.127
in ethyl acetate, 288.35 K | 0.156
in ethyl acetate, 292.95 K | 0.192
in ethyl acetate, 298.05 K | 0.243
in ethyl acetate, 302.85 K | 0.304
in ethyl acetate, 307.15 K | 0.364
in ethyl acetate, 312.35 K | 0.459
in ethyl acetate, 317.15 K | 0.557
in ethyl acetate, 321.55 K | 0.654
